Converted amounts (≈) assume the structure as drawn.
Legend:
[1] = system: ACC2; conditions: ACC2 isolated from rat, mouse, monkey and human; cited from earlier work
[2] = system: ACC1; conditions: ACC1 isolated from rat, mouse, monkey and human; cited from earlier work
[3] = target: human (hACC2) ACC2 (Homo sapiens, UniProt O00763); test: In vitro Acetyl-CoA Carboxylase (ACC) inhibition assay (ADP-Glo), hACC2; type: biochemical
Experimental: The detailed procedure is as follows. […] 10 μL ADP glo reagent was added. […] 20 μL kinase detection reagent was added.
“NA” stands for “not assayed.”

[4] = system: C. parapsilosis ATCC 22019; test: Anti-Fungal (Candida) Activity Assay, broth microtiter MIC; type: cell-based; conditions: Lodderomyces parapsilosis, ATCC22019; 3 replicates, MIC recorded at 48 h; read-out: MIC C. parapsilosis ATCC 22019
Summary of the method: (§1)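 In CLSI M27-A3 microtiter plates, yeast from overnight agar culture is inoculated in RPMI 1640–MOPS at a standard-curve density. The MIC is the endpoint scored visually against growth control at 48 h.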

[5] = system: C. albicans ATCC 90028; test: as above; type: cell-based; conditions: ATCC90028, 3 replicates, MIC recorded at 48 h, read-out: MIC C. albicans ATCC 90028
Summary of the method: as §1

[6] = system: C. krusei ATCC 6258; test: as above; type: cell-based; conditions: Pichia kudriavzevii, ATCC6258; 3 replicates, MIC recorded at 48 h; read-out: MIC C. krusei ATCC 6258
Summary of the method: as §1

[7] = target: fungal (fACC2) ACC2 (UniProt Q00955); conditions: read-out: fACC2 IC50; fungal ACC2, ADP-Glo
Sequence of fungal (fACC2) ACC2 (Q00955 whole entry): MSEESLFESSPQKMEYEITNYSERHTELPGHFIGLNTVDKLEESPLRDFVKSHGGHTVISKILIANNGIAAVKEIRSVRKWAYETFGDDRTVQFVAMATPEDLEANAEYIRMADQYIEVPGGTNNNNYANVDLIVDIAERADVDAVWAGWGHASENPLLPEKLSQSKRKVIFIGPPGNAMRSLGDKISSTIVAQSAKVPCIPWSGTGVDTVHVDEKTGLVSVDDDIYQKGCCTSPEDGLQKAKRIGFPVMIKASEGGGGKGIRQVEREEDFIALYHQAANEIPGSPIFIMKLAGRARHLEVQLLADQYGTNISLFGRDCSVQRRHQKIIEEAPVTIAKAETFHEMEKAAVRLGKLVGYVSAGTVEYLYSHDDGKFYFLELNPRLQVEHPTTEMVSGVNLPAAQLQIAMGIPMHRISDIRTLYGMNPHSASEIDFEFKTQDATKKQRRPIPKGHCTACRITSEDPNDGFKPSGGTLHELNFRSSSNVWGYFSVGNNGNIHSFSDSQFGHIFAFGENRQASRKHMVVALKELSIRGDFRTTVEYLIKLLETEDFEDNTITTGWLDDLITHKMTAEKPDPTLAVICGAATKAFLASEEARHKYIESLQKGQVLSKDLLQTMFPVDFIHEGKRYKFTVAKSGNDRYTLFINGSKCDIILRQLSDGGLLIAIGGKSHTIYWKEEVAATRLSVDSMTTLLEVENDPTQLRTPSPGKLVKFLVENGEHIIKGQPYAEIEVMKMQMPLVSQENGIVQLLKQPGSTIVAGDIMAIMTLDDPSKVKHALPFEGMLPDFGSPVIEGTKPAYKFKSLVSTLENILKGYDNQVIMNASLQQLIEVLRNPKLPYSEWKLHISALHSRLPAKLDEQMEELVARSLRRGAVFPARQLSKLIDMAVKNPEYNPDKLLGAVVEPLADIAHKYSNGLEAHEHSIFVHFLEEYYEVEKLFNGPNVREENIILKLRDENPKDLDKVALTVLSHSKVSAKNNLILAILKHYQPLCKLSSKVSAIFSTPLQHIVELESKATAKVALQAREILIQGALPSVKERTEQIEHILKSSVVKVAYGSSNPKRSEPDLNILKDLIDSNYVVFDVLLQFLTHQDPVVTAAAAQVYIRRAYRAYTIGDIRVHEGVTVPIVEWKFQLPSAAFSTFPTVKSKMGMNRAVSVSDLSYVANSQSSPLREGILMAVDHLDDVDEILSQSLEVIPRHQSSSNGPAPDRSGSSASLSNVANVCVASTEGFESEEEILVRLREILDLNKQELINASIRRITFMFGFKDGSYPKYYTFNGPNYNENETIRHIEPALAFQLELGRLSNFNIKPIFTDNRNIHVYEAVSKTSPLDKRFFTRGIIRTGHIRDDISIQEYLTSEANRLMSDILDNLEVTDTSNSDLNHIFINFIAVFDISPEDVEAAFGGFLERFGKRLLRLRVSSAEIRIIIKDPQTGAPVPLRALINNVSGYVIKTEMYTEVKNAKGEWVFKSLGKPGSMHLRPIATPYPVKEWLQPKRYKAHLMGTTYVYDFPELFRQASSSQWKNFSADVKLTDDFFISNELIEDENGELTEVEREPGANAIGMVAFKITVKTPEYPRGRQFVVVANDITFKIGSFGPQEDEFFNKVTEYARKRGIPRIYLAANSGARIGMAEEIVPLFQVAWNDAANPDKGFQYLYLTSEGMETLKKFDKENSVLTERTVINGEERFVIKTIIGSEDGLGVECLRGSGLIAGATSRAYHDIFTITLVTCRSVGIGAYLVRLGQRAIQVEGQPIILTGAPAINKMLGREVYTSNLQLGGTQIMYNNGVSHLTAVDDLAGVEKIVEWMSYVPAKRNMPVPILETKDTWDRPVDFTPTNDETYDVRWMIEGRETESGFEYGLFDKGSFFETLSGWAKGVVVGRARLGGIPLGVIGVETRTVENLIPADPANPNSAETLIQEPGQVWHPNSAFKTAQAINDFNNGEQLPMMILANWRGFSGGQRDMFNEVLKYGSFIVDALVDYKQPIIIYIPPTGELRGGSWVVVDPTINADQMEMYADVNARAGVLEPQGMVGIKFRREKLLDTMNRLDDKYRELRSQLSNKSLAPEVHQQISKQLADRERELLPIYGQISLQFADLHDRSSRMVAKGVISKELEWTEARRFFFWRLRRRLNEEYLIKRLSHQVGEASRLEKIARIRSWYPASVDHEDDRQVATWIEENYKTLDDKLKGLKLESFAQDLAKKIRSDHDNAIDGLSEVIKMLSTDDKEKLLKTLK

[8] = system: Septoria tritici (St); test: Growth inhibition assay of fungal pathogens; type: cell-based; conditions: Zymoseptoria tritici; Table 4b, 48 hours; read-out: Concentration at 90% Inhibition St
Summary of the method: (§2)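 Percent growth inhibition was derived from 48 h OD600 and visual scores relative to 2% DMSO, with blank background subtraction. Fungi were grown from spores in 17% V8 liquid medium, R. solani from 1.5 mm plugs in ¼ PDB, with compound at final 50/10/2 or 2/0.4/0.08 ppm.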

[9] = system: Rhizoctonia solani (Rs); test: Growth inhibition assay of fungal pathogens; type: cell-based; conditions: 48 h, Table 4b, read-out: Concentration at 90% Inhibition Rs
Summary of the method: (§3)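 Spores of Fm, Bc and Dm were suspended in 17% V8 liquid medium, while Rs was inoculated as 1.5 mm mycelial plugs in ¼ PDB. Compounds were tested at final 50, 10 and 2 ppm or 2, 0.4 and 0.08 ppm. Percent growth inhibition at 48 h versus 2% DMSO came from OD600 and visual ratings.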

[10] = system: Phytophthora capsici (Pc); test: Growth inhibition assay of fungal pathogens; type: cell-based; conditions: Phytophthora capsici; Table 4b, 48 hours; read-out: Concentration at 90% Inhibition Pc
Summary of the method: as §2

[11] = system: Fusarium moniliforme (Fm); test: Growth inhibition assay of fungal pathogens; type: cell-based; conditions: Fusarium verticillioides, 48 h, Table 4b, 48 hours; read-out: Concentration at 90% Inhibition Fm
Summary of the method: as §3

[12] = system: Fusarium virguliforme (Fv); test: Growth inhibition assay of fungal pathogens; type: cell-based; conditions: 48 h, Table 4b, 48 hours, read-out: Concentration at 90% Inhibition Fv
Summary of the method: as §2

[13] = system: Collectotrichum graminicola (Cg); test: Growth inhibition assay of fungal pathogens; type: cell-based; conditions: 48 h, Table 4b, read-out: Concentration at 90% Inhibition Cg
Summary of the method: as §2

[14] = system: Diplodia maydis (Dm); test: Growth inhibition assay of fungal pathogens; type: cell-based; conditions: Stenocarpella maydis, 48 h, Table 4b, read-out: Concentration at 90% Inhibition Dm
Summary of the method: as §3

[15] = system: Botrtyis cinerea (Bc); test: Growth inhibition assay of fungal pathogens; type: cell-based; conditions: 48 h, Table 4b, read-out: Concentration at 90% Inhibition Bc
Summary of the method: as §3

Sequence of human (hACC2) ACC2 (O00763 whole entry): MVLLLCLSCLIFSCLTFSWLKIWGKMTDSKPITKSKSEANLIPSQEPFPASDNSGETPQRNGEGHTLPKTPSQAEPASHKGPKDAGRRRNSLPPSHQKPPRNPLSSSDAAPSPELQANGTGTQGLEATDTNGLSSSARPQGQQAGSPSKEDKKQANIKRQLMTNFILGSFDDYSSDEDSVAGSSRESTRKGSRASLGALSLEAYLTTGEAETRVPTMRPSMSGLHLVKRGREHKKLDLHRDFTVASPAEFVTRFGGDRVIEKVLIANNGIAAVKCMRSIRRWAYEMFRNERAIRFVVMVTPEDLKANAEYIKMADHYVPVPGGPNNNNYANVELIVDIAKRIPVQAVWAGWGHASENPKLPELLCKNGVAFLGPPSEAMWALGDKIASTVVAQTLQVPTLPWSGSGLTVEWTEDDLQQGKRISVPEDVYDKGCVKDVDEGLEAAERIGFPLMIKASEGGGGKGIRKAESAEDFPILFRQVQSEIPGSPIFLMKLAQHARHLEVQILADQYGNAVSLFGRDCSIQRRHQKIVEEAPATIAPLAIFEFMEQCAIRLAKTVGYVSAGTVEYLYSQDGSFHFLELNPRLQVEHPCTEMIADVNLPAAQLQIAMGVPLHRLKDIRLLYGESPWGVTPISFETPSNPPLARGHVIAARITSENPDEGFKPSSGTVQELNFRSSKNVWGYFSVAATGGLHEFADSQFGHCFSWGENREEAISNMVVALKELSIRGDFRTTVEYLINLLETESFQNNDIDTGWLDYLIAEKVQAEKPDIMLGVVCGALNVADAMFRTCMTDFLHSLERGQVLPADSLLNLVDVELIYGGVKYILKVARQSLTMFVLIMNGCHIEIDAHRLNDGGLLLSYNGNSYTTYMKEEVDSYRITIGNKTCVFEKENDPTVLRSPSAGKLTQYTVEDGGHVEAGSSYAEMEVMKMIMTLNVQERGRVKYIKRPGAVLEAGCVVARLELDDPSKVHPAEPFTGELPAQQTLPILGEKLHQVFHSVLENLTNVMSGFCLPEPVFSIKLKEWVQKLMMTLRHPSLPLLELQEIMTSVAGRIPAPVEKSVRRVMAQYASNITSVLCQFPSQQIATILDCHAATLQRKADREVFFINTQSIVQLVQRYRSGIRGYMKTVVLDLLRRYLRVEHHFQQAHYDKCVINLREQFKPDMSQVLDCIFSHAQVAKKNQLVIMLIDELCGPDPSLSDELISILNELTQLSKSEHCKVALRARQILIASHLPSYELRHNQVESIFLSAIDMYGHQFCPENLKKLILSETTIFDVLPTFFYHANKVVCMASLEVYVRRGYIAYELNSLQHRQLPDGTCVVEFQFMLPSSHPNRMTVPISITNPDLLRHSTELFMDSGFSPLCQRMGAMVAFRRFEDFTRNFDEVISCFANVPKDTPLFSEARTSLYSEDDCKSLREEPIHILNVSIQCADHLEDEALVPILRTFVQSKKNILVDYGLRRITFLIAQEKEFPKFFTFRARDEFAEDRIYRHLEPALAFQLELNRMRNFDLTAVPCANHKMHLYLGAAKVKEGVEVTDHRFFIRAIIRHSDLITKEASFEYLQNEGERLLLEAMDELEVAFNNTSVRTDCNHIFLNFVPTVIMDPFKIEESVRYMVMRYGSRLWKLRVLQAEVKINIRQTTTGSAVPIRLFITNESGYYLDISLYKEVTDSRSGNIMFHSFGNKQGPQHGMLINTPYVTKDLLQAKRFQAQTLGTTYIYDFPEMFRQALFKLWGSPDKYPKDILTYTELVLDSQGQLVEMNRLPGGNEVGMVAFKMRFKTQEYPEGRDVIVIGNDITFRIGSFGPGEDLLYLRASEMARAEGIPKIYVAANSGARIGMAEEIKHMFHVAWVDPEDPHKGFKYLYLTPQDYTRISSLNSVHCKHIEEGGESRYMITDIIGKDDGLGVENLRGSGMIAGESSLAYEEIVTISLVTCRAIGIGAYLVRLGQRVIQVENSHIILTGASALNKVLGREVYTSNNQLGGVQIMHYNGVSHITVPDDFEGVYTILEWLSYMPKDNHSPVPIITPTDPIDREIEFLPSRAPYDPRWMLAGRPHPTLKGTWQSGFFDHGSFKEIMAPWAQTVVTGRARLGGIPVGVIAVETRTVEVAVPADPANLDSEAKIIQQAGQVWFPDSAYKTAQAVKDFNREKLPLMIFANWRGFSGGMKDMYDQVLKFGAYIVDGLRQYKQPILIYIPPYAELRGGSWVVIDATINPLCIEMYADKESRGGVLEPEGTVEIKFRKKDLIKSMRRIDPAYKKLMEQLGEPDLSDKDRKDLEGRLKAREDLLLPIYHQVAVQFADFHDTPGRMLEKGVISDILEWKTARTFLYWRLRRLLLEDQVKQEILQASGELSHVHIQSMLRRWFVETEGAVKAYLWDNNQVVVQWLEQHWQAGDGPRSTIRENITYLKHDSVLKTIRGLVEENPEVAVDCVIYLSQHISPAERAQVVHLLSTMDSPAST

Row | Structure (SMILES) | IC50 [1] [nM] | IC50 [2] [nM] | IC50 [3] [nM] | MIC [4] [µg/mL] | MIC [5] [µg/mL] | MIC [6] [µg/mL] | IC50 [7] [nM] | IC90 [8] [µg/mL] | IC90 [9] [µg/mL] | IC90 [10] [µg/mL] | IC90 [11] [µg/mL] | IC90 [12] [µg/mL] | IC90 [13] [µg/mL] | IC90 [14] [µg/mL] | IC90 [15] [µg/mL]
1 | O=C(c1c2ccccc2cc2ccccc12)N1CCC(N2CCC[C@@H](C(=O)N3CCOCC3)C2)CC1 [CP-640186] | ~60 | ~60 |  |  |  |  |  |  |  |  |  |  |  |  | 
2 | COc1ccc(F)cc1[C@H](Cn1c(=O)n(C(C)(C)C(=O)O)c(=O)c2c(C)c(-n3cccn3)sc21)OCCC#N [Compound I-82] |  |  | 10 to 40 | > 4.1 | > 4.1 | > 4.1 | 0.6 to 3 | > 50 | 10 (≈ 18 µM) | > 50 | 2 (≈ 3.6 µM) | 10 (≈ 18 µM) | > 50 | > 50 | 10 (≈ 18 µM)
3 | COc1ccc(F)cc1[C@@H](O)Cn1c(=O)n(C(C)(C)C(=O)O)c(=O)c2c(C)c(-n3cccn3)sc21 [Compound I-85] |  |  | 10 to 40 | 0.25 to 1 (≈ 0.497 to 1.99 µM) | 2.1 to 4 (≈ 4.18 to 7.96 µM) | 0.25 to 1 (≈ 0.497 to 1.99 µM) | 0.6 to 3 | > 50 | 10 (≈ 19.9 µM) | > 50 | 10 (≈ 19.9 µM) | > 50 | > 50 | > 50 | > 50

Reference: patent US10941158B2, “Pyrazole ACC inhibitors and uses thereof” (Gilead Apollo, LLC, priority 2015, dated 2021)
